According to patent US11634424B2 (priority 2019, dated 2023):
Where “and” joins values, the source holds several entries; their conditions need not be identical. Identical values can stand only once. Like-named read-outs stand apart in the source and are kept apart here. Each block holds one compound with its values, some of them ahead of it.

Assays:
[1] = target: Chk1 (Homo sapiens (Human), UniProt O14757); test: biochemical; assay type: biochemical; details: read-out: Chk1 inhibition IC50
Protocol: The compounds of the present disclosure used in the experiments were self-prepared, and their chemical names and structural formulas were shown in the preparation embodiments of each compound. The determination mixture containing embodiment compounds of the present disclosure and Chk1 and Chk2 kinases were incubated in a microtiter plate, and CHK1 inhibitor activity of compounds were tested by monitoring the phosphorylation of Chk1 and Chk2 kinases on a synthetic peptide substrate with a specific amino acid sequence ([…], SEQ ID NO: 1). The test was carried out on the KinaseProfiler™ protein kinase activity detection platform of Eurofins, and the experimental results were provided by the company. The procedure was as follows: Chk1 and Chk2 kinases were diluted with 20 mM MOPS (morpholinpropane sulfonic acid), 1 mM EDTA (ethylenediaminetetraacetic acid), 0.04% Brij-35, 5% glycerol, 0.1% 2-mercaptoethanol, 1 mg/mL BSA (bovine serum albumin) and added to the reaction system, and the reaction system contained the embodiment compounds, 8 mM MOPS pH 7.0, 0.2 mM EDTA, […] polypeptide substrate ([…], SEQ ID NO: 1), 10 mM magnesium acetate and a certain concentration of [γ-33P]-ATP (the strength was about 500 cpm/pmol). A mixture solution of Mg^2′ and ATP (adenosine triphosphate) was added to initiate the reaction and the reaction solution was incubated at room temperature for 40 min. 0.5% Phosphate buffer was added to terminate the reaction. 10 μL of the reaction solution was filtered four times on a continuous filter P30, washed three times with […], and once with methanol, each wash for 4 min. The value was read with scintillation counting method after drying.

[2] = target: Chk2 (Homo sapiens (Human), UniProt O96017); test: Chk2 kinase activity test, Eurofins KinaseProfiler, [γ-33P]-ATP peptide substrate phosphorylation; assay type: biochemical
Chain of Chk2 (O96017 whole entry): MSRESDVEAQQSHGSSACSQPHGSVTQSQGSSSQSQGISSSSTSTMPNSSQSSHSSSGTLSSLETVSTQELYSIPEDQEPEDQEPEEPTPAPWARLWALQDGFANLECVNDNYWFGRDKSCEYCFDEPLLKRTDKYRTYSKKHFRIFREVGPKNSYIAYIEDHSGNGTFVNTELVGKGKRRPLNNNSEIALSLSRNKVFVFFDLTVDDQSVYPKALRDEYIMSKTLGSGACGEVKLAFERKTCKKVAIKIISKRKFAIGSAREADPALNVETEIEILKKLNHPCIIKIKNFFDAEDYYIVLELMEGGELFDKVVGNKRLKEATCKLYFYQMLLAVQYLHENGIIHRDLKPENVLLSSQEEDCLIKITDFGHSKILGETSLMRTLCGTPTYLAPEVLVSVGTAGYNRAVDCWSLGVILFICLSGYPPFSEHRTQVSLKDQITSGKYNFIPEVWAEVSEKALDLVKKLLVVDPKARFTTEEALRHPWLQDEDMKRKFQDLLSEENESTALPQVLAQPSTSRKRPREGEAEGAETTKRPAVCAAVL
Protocol: The compounds of the present disclosure used in the experiments were self-prepared, and their chemical names and structural formulas were shown in the preparation embodiments of each compound. […] The test was carried out on the KinaseProfiler™ protein kinase activity detection platform of Eurofins, and the experimental results were provided by the company. […] A mixture solution of Mg^2′ and ATP (adenosine triphosphate) was added to initiate the reaction and the reaction solution was incubated at room temperature for 40 min. 0.5% Phosphate buffer was added to terminate the reaction. […] The value was read with scintillation counting method after drying.

[3] = test system: human ovarian cancer OVCAR-3 subcutaneous xenograft tumor; test: In vivo pharmacodynamics, human ovarian cancer OVCAR-3 subcutaneous xenograft tumor BALB/c nude mouse model; parameters: species or system BALB/c nude mice; details: oral twice a day, Compound 18 75 mg/kg, Compound 19 25 mg/kg; for Tumor volume (D 21): D 21, mean ± SEM, n = 6
Protocol: Experimental purpose: To evaluate the in vivo efficacy of the compounds of the present disclosure in the human ovarian cancer OVCAR-3 subcutaneous xenograft tumor BALB/c nude mouse model.
Experimental animal: Female BALB/c nude mice, 6-8 weeks old, weighing 18-22 grams; supplier: Beijing Vital River Laboratory Animal Technology Co., Ltd. Experimental methods and steps:
Human ovarian cancer OVCAR-3 (ATCC-HTB-161) cells were cultured in vitro in monolayer, and the culture conditions were RPMI1640 culture medium with 20% fetal bovine serum, 0.01 mg/mL bovine insulin, and 1% double antibody, and the cells were incubated at 37° C., 5% CO2 incubator. Routine digestion with trypsin was performed twice a week for passage. When the cell saturation was 80%-90% and the number reached the requirement, the cells were harvested, counted and inoculated.
0.1 mL (10×10^6 cells) of OVCAR-3 cells were subcutaneously inoculated into the right back of each mouse, and the mice were administrated in groups when the average tumor volume reached 122 mm^3.
Compound 18, compound 19 were formulated as 2 mg/mL clear solutions with 10% dimethyl sulfoxide-20% polyethylene glycol 400-5% Tween 80-65% water.
Tumor diameters were measured with vernier calipers twice a week. The calculation formula of tumor volume was. V=0.5a×b^2, where a and b represented the long and short diameters of the tumor, respectively.
The antitumor efficacy of the compounds was evaluated by TGI (%). TGI (%), reflecting tumor growth inhibition rate. TGI (%/c)=[(1-(average tumor volume at the end of administration of a certain treatment group-average tumor volume at the beginning of administration of this treatment group)/(average tumor volume at the end of treatment in the solvent control group-average tumor volume at the beginning of administration of this solvent control group)]×100%. The relative tumor volume (RTV) was calculated according to the results of tumor measurement, and the calculation formula was RTV=Vt/V0, where V0 was measured at the time of group administration (i.e., D0), and Vt was the average tumor volume at the time of one measurement.
Statistical analysis was performed using SPSS software based on RTV data at the end of the test. The Ttest was used for the comparison between two groups, and the one-way ANOVA was used for the comparison between three or more groups. If the variance was homogeneous (no significant difference in F value), Tukey's method was used for analysis; if the variance was not homogeneous (significant difference in F value), Games-Howell method was used for test. p<0.05 was considered that a significant difference was performed.

[4] = Pharmacokinetic evaluation of compounds in mice; assay type: in vivo; details: mouse, plasma, female C57BL/6 mice; for bioavailability: oral, gavage 10 mg/kg vs intravenous 1 mg/kg, read-out: F (bioavailability); for AUC(0-t): 0 to 24 h; for Cmax: route not given (gavage group 10 mg/kg); for half-life: read-out: Intravenous injection T1/2 (converted)
[5] = po, gavage 10 mg/kg, read-out: Oral AUC0-last
[6] = intravenous injection 1 mg/kg, read-out: Intravenous Injection AUC0-last

Chain of Chk1 (O14757 whole entry): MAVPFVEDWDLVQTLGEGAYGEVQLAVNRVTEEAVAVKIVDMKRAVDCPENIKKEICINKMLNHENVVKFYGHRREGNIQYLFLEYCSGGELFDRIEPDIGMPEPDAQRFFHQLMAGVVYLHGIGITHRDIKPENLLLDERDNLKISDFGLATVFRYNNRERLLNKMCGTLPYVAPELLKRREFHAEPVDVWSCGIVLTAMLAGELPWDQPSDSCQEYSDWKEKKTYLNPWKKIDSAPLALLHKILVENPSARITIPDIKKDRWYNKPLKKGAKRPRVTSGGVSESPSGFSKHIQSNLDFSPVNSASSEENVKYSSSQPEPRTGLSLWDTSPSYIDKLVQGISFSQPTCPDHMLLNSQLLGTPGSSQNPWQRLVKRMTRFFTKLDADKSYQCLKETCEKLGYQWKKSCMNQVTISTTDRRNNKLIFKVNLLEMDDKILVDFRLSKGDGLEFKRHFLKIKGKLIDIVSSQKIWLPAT

- IC50 [1]: < 1 nM
Compound: COc1nc(C)ccc1-c1cc(Nc2cnc3ccn(C4CCNCC4)c3n2)n[nH]1 [Compound 1]

Compound: COc1cc(F)ccc1-c1cc(Nc2cnc3ccn(C4CCNCC4)c3n2)n[nH]1 [Compound 12]
- IC50 ([2]; read-out: Chk2 inhibition IC50): 32 nM
- IC50 [1]: 1 nM

Compound: COc1nc(C)ccc1-c1cc(Nc2cnc3ccn(C[C@H]4CCNC4)c3n2)n[nH]1 [Compound 5]
- IC50 ([2]; read-out: Chk2 inhibition IC50): 375 nM
- IC50 [1]: 3 nM

Compound: COc1nc(C)ccc1-c1cc(Nc2cnc3ccn(C4CCN(C)CC4)c3n2)n[nH]1 [Compound 18]
- Tumor volume (D 21) [3]: 180 ± 16 mm^3
- Tumor volume (D 21) ([3]; listed as compound 18): 180 mm^3
- RTV (D 21) [3]: 1.49
- TGI (%) (D 21) [3]: 92.34%
- TGI (%) (D 21) ([3]; listed as compound 18): 92.3%
- bioavailability [4]: 33.2%
- AUC(0-t) [4, 5]: 3.63 µM·h
- Cmax ([4]; po): 1220 nM
- Vd ([4]; intravenous injection 1 mg/kg): 1.9 L/kg
- clearance ([4]; intravenous injection 1 mg/kg): 35.3 mL/min/kg
- AUC(0-t) [4, 6]: 1.14 µM·h
- half-life ([4]; intravenous injection 1 mg/kg): 0.9 h

Compound: COc1ccccc1-c1cc(Nc2cnc3ccn(C4CCNCC4)c3n2)n[nH]1 [Compound 10]
- IC50 ([2]; read-out: Chk2 inhibition IC50): 62 nM
- IC50 [1]: 2 nM

Compound: COc1nc(C)ccc1-c1cc(Nc2cnc3ccn(CC4CNC4)c3n2)n[nH]1 [Compound 4]
- IC50 ([2]; read-out: Chk2 inhibition IC50): 333 nM
- IC50 [1]: 3 nM

- IC50 [2]: 386 nM
- IC50 [1]: 1 nM
Compound: [2H]C([2H])([2H])Oc1nc(C)ccc1-c1cc(Nc2cnc3ccn(C4CCN(C([2H])([2H])[2H])CC4)c3n2)n[nH]1 [Compound 22]

Compound: COc1nc(C(F)(F)F)ccc1-c1cc(Nc2cnc3ccn(C4CCNCC4)c3n2)n[nH]1 [Compound 9]
- IC50 ([2]; read-out: Chk2 inhibition IC50): 1010 nM
- IC50 [1]: 2 nM

- IC50 [1]: 2 nM
Compound: COc1nc(C)ccc1-c1cc(Nc2cnc3c(F)cn(C4CCNCC4)c3n2)n[nH]1 [Compound 2]

Compound: COc1cc(Cl)ccc1-c1cc(Nc2cnc3ccn(C4CCNCC4)c3n2)n[nH]1 [Compound 14]
- IC50 ([2]; read-out: Chk2 inhibition IC50): 73 nM
- IC50 [1]: 1 nM

Compound: COc1cc(C)ccc1-c1cc(Nc2cnc3ccn(C4CCNCC4)c3n2)n[nH]1 [Compound 13]
- IC50 ([2]; read-out: Chk2 inhibition IC50): 84 nM
- IC50 [1]: 2 nM

- IC50 [2]: 64 nM
- IC50 [1]: < 1 nM
Compound: [2H]c1cn(C2CCNCC2)c2nc(Nc3cc(-c4ccc(C)nc4OC)[nH]n3)cnc12 [Compound 6]

Compound: COc1nc(C)ccc1-c1cc(Nc2cnc3c(F)cn(C4CCN(C)CC4)c3n2)n[nH]1 [Compound 19]
- Tumor volume (D 21) [3]: 131 mm^3 and 131 ± 12 mm^3
- RTV (D 21) [3]: 1.14
- TGI (%) (D 21) [3]: 98.8% and 98.76%
- bioavailability [4]: 39.1%
- AUC(0-t) [4, 5]: 3.91 µM·h
- Cmax ([4]; po): 1220 nM
- Vd ([4]; intravenous injection 1 mg/kg): 2.4 L/kg
- clearance ([4]; intravenous injection 1 mg/kg): 33.1 mL/min/kg
- AUC(0-t) [4, 6]: 1.15 µM·h
- half-life ([4]; intravenous injection 1 mg/kg): 1.1 h

Compound: COc1ccc(F)cc1-c1cc(Nc2cnc3ccn(C4CCNCC4)c3n2)n[nH]1 [Compound 8]
- IC50 ([2]; read-out: Chk2 inhibition IC50): 188 nM
- IC50 [1]: 1 nM

Compound: Fc1cccc(OC(F)(F)F)c1-c1cc(Nc2cnc3ccn(C4CCNCC4)c3n2)n[nH]1 [Compound 11]
- IC50 ([2]; read-out: Chk2 inhibition IC50): 99 nM
- IC50 [1]: 3 nM

Compound: [2H]C([2H])([2H])N1CCC(n2ccc3ncc(Nc4cc(-c5ccc(C)nc5OC)[nH]n4)nc32)CC1 [Compound 21]
- IC50 [2]: 362 nM
- IC50 [1]: 1 nM

Compound: [2H]C([2H])([2H])Oc1nc(C)ccc1-c1cc(Nc2cnc3c(F)cn(C4CCN(C)CC4)c3n2)n[nH]1 [Compound 20]
- IC50 [2]: 282 nM
- bioavailability [4]: 41.9%
- AUC(0-t) [4, 5]: 5.13 µM·h
- Cmax ([4]; po): 1260 nM
- Vd ([4]; intravenous injection 1 mg/kg): 2.7 L/kg
- clearance ([4]; intravenous injection 1 mg/kg): 30.9 mL/min/kg
- AUC(0-t) [4, 6]: 1.21 µM·h
- half-life ([4]; intravenous injection 1 mg/kg): 1.4 h
- IC50 [1]: 2 nM
